Read-outs that look alike come from different tables or passages of the source.
Legend:
[1] = molecular target: Sigma1 (Cavia porcellus, UniProt Q60492); test: NIMH PDSP radioligand binding, Sigma1; conditions: radioligand [3H]pentazocine(+), n=4
Procedure: IC50 values in μM (Ki μM)^a. The targets in bold were inhibited by >35% at 10 μM.

[2] = molecular target: T1, hGAT3 (Homo sapiens, UniProt P48066); test: [3H]GABA uptake at hGAT3 transiently expressed in tsA201 cells; type: cell-based; conditions: 30 nM [3H]GABA, 3 min, F test P < 0.05
T1 construct: expressed in transfected cells
T1 sequence (P48066 1-632): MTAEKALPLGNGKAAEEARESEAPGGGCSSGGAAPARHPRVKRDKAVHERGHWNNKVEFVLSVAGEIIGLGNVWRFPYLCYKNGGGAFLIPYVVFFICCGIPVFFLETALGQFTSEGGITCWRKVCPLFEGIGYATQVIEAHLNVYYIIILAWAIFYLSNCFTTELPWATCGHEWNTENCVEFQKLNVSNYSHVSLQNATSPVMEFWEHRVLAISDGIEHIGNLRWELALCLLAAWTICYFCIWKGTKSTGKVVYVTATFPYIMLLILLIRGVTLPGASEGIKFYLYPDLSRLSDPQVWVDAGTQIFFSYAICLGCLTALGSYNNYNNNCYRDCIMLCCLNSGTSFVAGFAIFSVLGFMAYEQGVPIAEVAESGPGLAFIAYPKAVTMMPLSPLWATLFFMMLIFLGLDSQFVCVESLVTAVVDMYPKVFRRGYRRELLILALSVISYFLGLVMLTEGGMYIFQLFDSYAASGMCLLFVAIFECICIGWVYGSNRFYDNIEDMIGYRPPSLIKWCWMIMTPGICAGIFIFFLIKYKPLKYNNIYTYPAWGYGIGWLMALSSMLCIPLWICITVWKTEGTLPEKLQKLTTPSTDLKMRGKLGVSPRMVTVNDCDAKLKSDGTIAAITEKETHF
Procedure: (§1) The HEK-293 and Flp-In CHO cell lines stably expressing mouse (m) and human (h) GATs, respectively, have been described previously and were cultured accordingly. The tsA201 cell line was used for transient expression while the MDCK II cell line express BGT1 endogenously. Both cell lines were cultured as described. tsA201 cells were transfected with DNA constructs (8 μg per 10 cm dish if not otherwise mentioned) using 40 μL PolyFect transfection reagent according to the manufacturer’s protocol (Qiagen, Venlo, Netherlands). The DNA constructs encoding hBGT1, hGAT1-3 [36], the mutated constructs hBGT1 Q299 and hGAT3 L314Q described previously, and hBGT Y453A were synthesized and sequence validated by Genscript (NJ, USA).
(§2) The [^3H]GABA competition uptake assay was performed as previously described. A minor change, however, was introduced for uptake in MDCK II cells, in which 100 nM [^3H]GABA was used for a 15 min incubation period at 37 °C instead of 30 nM [^3H]GABA and 3 min incubation. Studies related to the inhibition curves with GABA and BPDBA at hBGT1 were obtained both with and without the presence of 10 μM ATP during the [^3H]GABA uptake assay.
The [^3H]GABA uptake data was normalized to the percentage of total uptake in the individual experiments in the presence of the lowest compound concentration or no compound present. […]

[3] = molecular target: T2, Beta1 (Homo sapiens, UniProt P08588); test: NIMH PDSP radioligand binding, Beta1; conditions: radioligand [125I]pindolol, n=4
T2 construct: purchased NIMH Psychoactive Drug Screening Program (PDSP)
T2 sequence (P08588 whole entry): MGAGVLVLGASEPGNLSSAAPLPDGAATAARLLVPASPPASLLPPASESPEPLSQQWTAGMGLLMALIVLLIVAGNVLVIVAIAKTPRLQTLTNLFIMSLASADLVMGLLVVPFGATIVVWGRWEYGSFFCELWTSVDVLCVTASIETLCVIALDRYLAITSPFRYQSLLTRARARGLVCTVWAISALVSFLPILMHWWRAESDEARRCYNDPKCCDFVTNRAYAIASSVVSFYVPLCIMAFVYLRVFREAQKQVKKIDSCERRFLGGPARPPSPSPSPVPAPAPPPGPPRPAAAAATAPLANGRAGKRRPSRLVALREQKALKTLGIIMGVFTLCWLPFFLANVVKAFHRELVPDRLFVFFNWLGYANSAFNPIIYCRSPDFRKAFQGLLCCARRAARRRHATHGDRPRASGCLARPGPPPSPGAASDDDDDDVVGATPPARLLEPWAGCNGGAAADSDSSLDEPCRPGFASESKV

[4] = molecular target: T3, canine BGT1 (Canis lupus familiaris, UniProt P27799); test: [3H]GABA uptake at canine BGT1 endogenously expressed in MDCK II cells; type: cell-based
T3 construct: the MDCK II cell line express BGT1 endogenously; endogenous in cells; host or cells: MDCK II
T3 sequence (P27799 1-614): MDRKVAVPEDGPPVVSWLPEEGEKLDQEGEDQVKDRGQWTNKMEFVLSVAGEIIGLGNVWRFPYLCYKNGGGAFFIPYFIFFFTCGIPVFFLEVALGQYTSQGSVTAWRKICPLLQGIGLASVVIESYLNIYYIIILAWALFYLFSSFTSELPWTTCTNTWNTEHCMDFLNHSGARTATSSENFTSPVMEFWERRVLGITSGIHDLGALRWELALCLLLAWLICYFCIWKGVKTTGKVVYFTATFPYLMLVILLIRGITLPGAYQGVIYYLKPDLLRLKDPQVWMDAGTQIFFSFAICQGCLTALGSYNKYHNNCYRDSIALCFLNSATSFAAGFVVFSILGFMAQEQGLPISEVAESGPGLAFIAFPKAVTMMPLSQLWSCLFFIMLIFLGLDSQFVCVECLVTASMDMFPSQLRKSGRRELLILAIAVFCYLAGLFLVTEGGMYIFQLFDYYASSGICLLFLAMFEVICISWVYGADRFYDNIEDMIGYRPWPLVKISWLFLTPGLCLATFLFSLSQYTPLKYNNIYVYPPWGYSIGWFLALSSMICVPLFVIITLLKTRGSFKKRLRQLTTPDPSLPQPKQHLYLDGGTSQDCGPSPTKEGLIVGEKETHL
Procedure: as §1, §2
The [^3H]GABA uptake data was normalized to the percentage of total uptake in the individual experiments in the presence of the lowest compound concentration or no compound present. Data presented is the pooled data of at least three independent experiments with three technical replicates. Concentration–response curves (CRCs) were fitted with GraphPad Prism (version 8.2.1, Yosemite, GraphPad Software, San Diego, CA, USA) by non-linear regression to the sigmoidal concentration response model: Y=Bottom+(Top-Bottom)/1+10^LogIC50-X∗nH where Top is the Top plateau, Bottom is the Bottom plateau, X is the logarithm of the concentration of the compound, LogIC50 is the concentration giving a response halfway between Top and Bottom,and nH is the Hill slope.
The best fit for CRCs obtained with the [^3H]GABA uptake assay was identified by the extra-sum-of-squares F test (for convenience referred to as F test).

[5] = molecular target: T4, Alpha1D (Homo sapiens, UniProt P25100); test: NIMH PDSP radioligand binding, Alpha1D; conditions: radioligand [3H]prazosine, n=4
T4 construct: purchased NIMH Psychoactive Drug Screening Program (PDSP)
T4 sequence (P25100 whole entry): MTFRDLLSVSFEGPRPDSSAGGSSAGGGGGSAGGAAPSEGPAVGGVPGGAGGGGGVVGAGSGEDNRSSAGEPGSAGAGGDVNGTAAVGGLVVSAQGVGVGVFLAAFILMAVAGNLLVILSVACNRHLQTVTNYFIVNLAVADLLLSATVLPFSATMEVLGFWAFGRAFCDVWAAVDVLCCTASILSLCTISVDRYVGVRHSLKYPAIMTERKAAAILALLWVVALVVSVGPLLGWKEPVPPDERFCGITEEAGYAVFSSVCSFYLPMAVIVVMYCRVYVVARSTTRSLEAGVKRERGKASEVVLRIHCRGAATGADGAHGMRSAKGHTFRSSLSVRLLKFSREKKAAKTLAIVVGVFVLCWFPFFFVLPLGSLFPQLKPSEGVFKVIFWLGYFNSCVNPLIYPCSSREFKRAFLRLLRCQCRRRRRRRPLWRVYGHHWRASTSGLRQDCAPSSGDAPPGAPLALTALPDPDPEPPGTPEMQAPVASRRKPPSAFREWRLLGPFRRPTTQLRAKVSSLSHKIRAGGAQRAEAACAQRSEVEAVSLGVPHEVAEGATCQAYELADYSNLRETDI

Sigma1, sequence (Q60492 whole entry): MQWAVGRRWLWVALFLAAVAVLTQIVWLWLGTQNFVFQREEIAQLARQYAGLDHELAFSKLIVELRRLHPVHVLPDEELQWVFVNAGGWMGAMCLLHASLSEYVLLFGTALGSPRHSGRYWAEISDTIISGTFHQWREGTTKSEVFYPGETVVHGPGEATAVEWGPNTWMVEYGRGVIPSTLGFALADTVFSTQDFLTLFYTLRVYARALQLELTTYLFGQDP

Cc1ccsc1C(=CCCN(C)[C@H]1CCCC[C@H]1C(=O)O)c1sccc1C [SBV2-114, (1R,2S)-2-((4,4-bis(3-methylthiophen-2-yl)but-3-en-yl)(methyl)amino)cyclohexanecarboxylic acid]
inhibition at 10 µM [1]: 55.6%
preferred fit [2]: biphasic fit
inhibition at 10 µM [3]: 37.9%
Frac [4]: 0.38
IC50 ([4]; IC50, high affinity component, biphasic fit, 100 nM [3H]GABA, 15 min): 100 nM
IC50 ([4]; pIC50 ± S.E.M., high affinity component, biphasic fit, 100 nM [3H]GABA, 15 min): 105 nM
IC50 ([4]; read-out: IC50, low affinity component, biphasic fit, 100 nM [3H]GABA, 15 min): 251000 nM
inhibition at 10 µM [5]: -4.7%

Reference: PMC7297817, “Pharmacological Characterization of a Betaine/GABA Transporter 1 (BGT1) Inhibitor Displaying an Unusual Biphasic Inhibition Profile and Anti-seizure Effects” (Neurochemical Research, 2020)
